The values that follow come from PubChem BioAssay AID270 (DTP/NCI, 2004).

The test system of the assay is BDF1 mice, s.c. Lewis lung carcinoma, T/C %. Description: NCI In Vivo Anticancer Drug Screen. Data for tumor model Lewis Lung Carcinoma (subcutaneous) in B6D2F1 (BDF1) mice. The method in brief: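 Tumor-bearing mice were treated with test compound, and either survival or tumor size was recorded. Values are the treated-group measurement divided by that of the vehicle-treated control group.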

[1] abbreviates: endpoint: mean tumor weight, dose: 40.0 mg/kg/injection, schedule: Q01DX011 (sc), vehicle: steriod suspending solution, higher = larger tumour.

“And” between values parts separate entries of the source, which are not always exact repeats. Equal values may be shown once. Inconclusive results are not listed.

Take `CO[C@H]1Nc2c(ccc(C)c2O)C(=O)N2C=C(/C=C/C(N)=O)C[C@@H]12`: the T/C was 92 % of control (endpoint: median survival time, dose: 0.03 mg/kg/injection, schedule: Q04DX003 (ip), vehicle: saline with Tween-80, higher = longer survival); 103 % of control (endpoint: median survival time, dose: 0.04 mg/kg/injection, schedule: Q04DX003 (ip), vehicle: saline with Tween-80, higher = longer survival); 89 % of control and 98 % of control (endpoint: median survival time, dose: 0.06 mg/kg/injection, schedule: Q04DX003 (ip), vehicle: saline with Tween-80, higher = longer survival); 98 % of control (endpoint: median survival time, dose: 0.13 mg/kg/injection, schedule: Q04DX003 (ip), vehicle: saline with Tween-80, higher = longer survival); 99 % of control (endpoint: median survival time, dose: 0.25 mg/kg/injection, schedule: Q04DX003 (ip), vehicle: saline with Tween-80, higher = longer survival); 107 % of control (endpoint: median survival time, dose: 50.0 micrograms/kg/injection, schedule: Q04DX003 (ip), vehicle: saline + alcohol, higher = longer survival). Further, the T/C (endpoint: median survival time, dose: 100.0 micrograms/kg/injection, schedule: Q04DX003 (ip), vehicle: saline + alcohol, higher = longer survival) is 106 % of control and the T/C (endpoint: median survival time, dose: 200.0 micrograms/kg/injection, schedule: Q04DX003 (ip), vehicle: saline + alcohol, higher = longer survival) is 97 % of control.

As to `O=[N+]([O-])c1ccc2c(N=Nc3ccc4ccccc4c3O)c(O)cc(S(=O)(=O)O)c2c1`, the T/C was 101 % of control (endpoint: median survival time, dose: 37.5 mg/kg/injection, schedule: Q01DX009 (ip), vehicle: saline, higher = longer survival); 109 % of control (endpoint: median survival time, dose: 75.0 mg/kg/injection, schedule: Q01DX009 (ip), vehicle: saline, higher = longer survival); 94 % of control (endpoint: median survival time, dose: 150.0 mg/kg/injection, schedule: Q01DX009 (ip), vehicle: saline, higher = longer survival).

Regarding `CC(=O)C1=C(O)C2(C)c3c(O)c(C)c(O)c(C(C)=O)c3OC2(Sc2ccccc2)CC1=O` (centres undefined), the T/C was 101 % of control (endpoint: median survival time, dose: 6.25 mg/kg/injection, schedule: Q01DX009 (ip), vehicle: gum acacia, higher = longer survival); 101 % of control (endpoint: median survival time, dose: 25.0 mg/kg/injection, schedule: Q01DX009 (ip), vehicle: gum acacia, higher = longer survival); 97 % of control (endpoint: median survival time, dose: 50.0 mg/kg/injection, schedule: Q01DX009 (ip), vehicle: gum acacia, higher = longer survival).

Regarding `O=c1n(CCCl)c(=O)n(CCCl)c(=O)n1CCCl`, the T/C (endpoint: mean tumor weight, dose: 25.0 mg/kg/injection, schedule: Q01DX011 (ip), vehicle: other, higher = larger tumour) is 121 % of control; the T/C (endpoint: mean tumor weight, dose: 50.0 mg/kg/injection, schedule: Q01DX011 (ip), vehicle: other, higher = larger tumour) was 116 % of control; the T/C (endpoint: mean tumor weight, dose: 100.0 mg/kg/injection, schedule: Q01DX011 (ip), vehicle: other, higher = larger tumour) is 65 % of control; the T/C (endpoint: mean tumor weight, dose: 200.0 mg/kg/injection, schedule: Q01DX011 (ip), vehicle: other, higher = larger tumour) is 113 % of control; the T/C (endpoint: mean tumor weight, dose: 400.0 mg/kg/injection, schedule: Q01DX011 (ip), vehicle: other, higher = larger tumour) was 108 % of control.

On to `CCC1/C=C/C=C/CC(C)C(O)C(C)(O)C(=O)C(C)C(O)C(C)C(=O)C(C)C(O)C(C)/C=C/C(=O)OC2C(C)C(CC1)OC1(OC(CC(C)O)C(C)CC1=O)C2C` (centres undefined) (tested in a mixture with another compound), for which the T/C (endpoint: mean tumor weight, dose: 2.0 mg/kg/injection, schedule: Q01DX011 (ip), vehicle: saline, higher = larger tumour) was 106 % of control; the T/C (endpoint: mean tumor weight, dose: 4.0 mg/kg/injection, schedule: Q01DX011 (ip), vehicle: saline, higher = larger tumour) was 94 % of control; the T/C (endpoint: mean tumor weight, dose: 8.0 mg/kg/injection, schedule: Q01DX011 (ip), vehicle: saline, higher = larger tumour) is 82 % of control.

As to `CC(C)(CC(=O)O)CC(=O)OCC(=O)[C@@]1(O)CC[C@H]2[C@@H]3CCC4=CC(=O)C=C[C@]4(C)[C@H]3[C@@H](O)C[C@@]21C`, the T/C under setting [1] is 69 % of control; the T/C (endpoint: mean tumor weight, dose: 80.0 mg/kg/injection, schedule: Q01DX011 (sc), vehicle: steriod suspending solution, higher = larger tumour) is 76 % of control; the T/C (endpoint: mean tumor weight, dose: 160.0 mg/kg/injection, schedule: Q01DX011 (sc), vehicle: steriod suspending solution, higher = larger tumour) is 60 % of control; the T/C (endpoint: mean tumor weight, dose: 320.0 mg/kg/injection, schedule: Q01DX011 (sc), vehicle: steriod suspending solution, higher = larger tumour) was 51 % of control and 57 % of control; the T/C (endpoint: mean tumor weight, dose: 640.0 mg/kg/injection, schedule: Q01DX011 (sc), vehicle: steriod suspending solution, higher = larger tumour) is 31 % of control.

Regarding `CC1CCC2(NC1)OC1CC3C4CCC5CC(OC6OC(CO)C(OC7OC(CO)C(O)C(OC8OCC(O)C(O)C8O)C7OC7OC(CO)C(O)C(O)C7O)C(O)C6O)CCC5(C)C4CCC3(C)C1C2C` (centres undefined), the T/C runs as follows: (endpoint: mean tumor weight, dose: 5.0 mg/kg/injection, schedule: Q01DX011 (sc), vehicle: steriod suspending solution, higher = larger tumour) 104 % of control; (endpoint: mean tumor weight, dose: 10.0 mg/kg/injection, schedule: Q01DX011 (sc), vehicle: steriod suspending solution, higher = larger tumour) 77 % of control; (endpoint: mean tumor weight, dose: 20.0 mg/kg/injection, schedule: Q01DX011 (sc), vehicle: steriod suspending solution, higher = larger tumour) 85 % of control; under setting [1], 94 % of control.

With `CC(=O)NC(Cc1ccc(N(CCCl)CCCl)cc1)C(=O)O` (centres undefined), the T/C was 104 % of control (endpoint: median survival time, dose: 3.13 mg/kg/injection, schedule: Q01DX009 (ip), vehicle: other, higher = longer survival); 120 % of control (endpoint: median survival time, dose: 6.25 mg/kg/injection, schedule: Q01DX009 (ip), vehicle: other, higher = longer survival); 114 % of control (endpoint: median survival time, dose: 25.0 mg/kg/injection, schedule: Q01DX009 (ip), vehicle: other, higher = longer survival).

On to `O=c1cc(CO)[nH]cc1O`, for which the T/C reads like this: (endpoint: mean tumor weight, dose: 25.0 mg/kg/injection, schedule: Q01DX011 (ip), vehicle: methylcellulose (MC), higher = larger tumour) 81 % of control; (endpoint: mean tumor weight, dose: 50.0 mg/kg/injection, schedule: Q01DX011 (ip), vehicle: methylcellulose (MC), higher = larger tumour) 77 % of control; (endpoint: mean tumor weight, dose: 100.0 mg/kg/injection, schedule: Q01DX011 (ip), vehicle: methylcellulose (MC), higher = larger tumour) 63 % of control; (endpoint: mean tumor weight, dose: 500.0 mg/kg/injection, schedule: Q01DX011 (ip), vehicle: methylcellulose (MC), higher = larger tumour) 62 % of control; (endpoint: mean tumor weight, dose: 600.0 mg/kg/injection, schedule: Q01DX011 (ip), vehicle: methylcellulose (MC), higher = larger tumour) 82 % of control; (endpoint: mean tumor weight, dose: 700.0 mg/kg/injection, schedule: Q01DX011 (ip), vehicle: methylcellulose (MC), higher = larger tumour) 115 % of control.

On to `C/C=C(\C)C(=O)O[C@@H]1c2cc3c(cc2-c2c(cc(OC)c(OC)c2OC)[C@@H]2C(=O)OC[C@@H]12)OCO3`, for which the T/C was 99 % of control (endpoint: median survival time, dose: 1.25 mg/kg/injection, schedule: Q01DX009 (ip), vehicle: Klucel (hydroxypropylcellulose) (HPC), higher = longer survival); 110 % of control (endpoint: median survival time, dose: 2.5 mg/kg/injection, schedule: Q01DX009 (ip), vehicle: Klucel (hydroxypropylcellulose) (HPC), higher = longer survival); 101 % of control (endpoint: median survival time, dose: 5.0 mg/kg/injection, schedule: Q01DX009 (ip), vehicle: Klucel (hydroxypropylcellulose) (HPC), higher = longer survival).

Take `C=C[C@]1(C)C=C2CC[C@@H]3[C@](C)(CCC[C@@]3(C)C(=O)O)[C@H]2CC1`: the T/C is, setting by setting: (endpoint: mean tumor weight, dose: 7.8 mg/kg/injection, schedule: Q01DX011 (ip), vehicle: saline, higher = larger tumour) 73 % of control; (endpoint: mean tumor weight, dose: 15.6 mg/kg/injection, schedule: Q01DX011 (ip), vehicle: saline, higher = larger tumour) 55 % of control; (endpoint: mean tumor weight, dose: 31.3 mg/kg/injection, schedule: Q01DX011 (ip), vehicle: saline, higher = larger tumour) 43 % of control; (endpoint: mean tumor weight, dose: 62.5 mg/kg/injection, schedule: Q01DX011 (ip), vehicle: saline, higher = larger tumour) 98 % of control and 102 % of control; (endpoint: mean tumor weight, dose: 125.0 mg/kg/injection, schedule: Q01DX011 (ip), vehicle: saline, higher = larger tumour) 102 % of control; (endpoint: mean tumor weight, dose: 250.0 mg/kg/injection, schedule: Q01DX011 (ip), vehicle: saline, higher = larger tumour) 82 % of control.

In the case of `COC(=O)Nc1nc2ccc(C(=O)c3ccccc3)cc2[nH]1`, the T/C runs as follows: (endpoint: median survival time, dose: 2.0 mg/kg/injection, schedule: Q04DX003 (ip), vehicle: saline with Tween-80, higher = longer survival) 89 % of control; (endpoint: median survival time, dose: 4.0 mg/kg/injection, schedule: Q04DX003 (ip), vehicle: saline with Tween-80, higher = longer survival) 95 % of control; (endpoint: median survival time, dose: 8.0 mg/kg/injection, schedule: Q04DX003 (ip), vehicle: saline with Tween-80, higher = longer survival) 98 % of control; (endpoint: median survival time, dose: 32.0 mg/kg/injection, schedule: Q04DX003 (ip), vehicle: saline with Tween-80, higher = longer survival) 95 % of control; (endpoint: median survival time, dose: 64.0 mg/kg/injection, schedule: Q04DX003 (ip), vehicle: saline with Tween-80, higher = longer survival) 102 % of control.
